# What was measured:
# [1] = molecular target: T1, estrogen receptor (Homo sapiens, UniProt P03372); assay: Specific [3H]estradiol-17β binding by MCF-7 parental cells; details: 2 nM [3H]estradiol-17β, compounds at 10 μM, FIG. 5A
# T1 construct: endogenous in cells; host or cells: MCF-7 parental (MCF-7/CON) human breast cancer cells
# T1 sequence (P03372 1-595): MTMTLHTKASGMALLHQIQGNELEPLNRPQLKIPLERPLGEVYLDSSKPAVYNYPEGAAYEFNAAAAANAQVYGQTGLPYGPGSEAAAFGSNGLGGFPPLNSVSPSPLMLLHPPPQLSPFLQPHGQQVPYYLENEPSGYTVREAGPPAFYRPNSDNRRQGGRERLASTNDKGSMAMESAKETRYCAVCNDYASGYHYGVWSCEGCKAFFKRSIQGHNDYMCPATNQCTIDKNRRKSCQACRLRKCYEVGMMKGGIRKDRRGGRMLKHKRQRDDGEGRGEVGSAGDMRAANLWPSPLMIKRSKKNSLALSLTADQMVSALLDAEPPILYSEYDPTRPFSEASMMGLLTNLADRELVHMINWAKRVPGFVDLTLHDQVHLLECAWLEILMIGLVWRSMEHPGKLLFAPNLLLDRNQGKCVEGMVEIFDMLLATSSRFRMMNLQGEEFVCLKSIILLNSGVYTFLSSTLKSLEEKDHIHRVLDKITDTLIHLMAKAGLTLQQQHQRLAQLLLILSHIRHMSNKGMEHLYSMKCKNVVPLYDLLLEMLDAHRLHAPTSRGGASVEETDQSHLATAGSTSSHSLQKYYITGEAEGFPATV
# Description: Specific estradiol binding: Specific estradiol-17β (E2) binding was assessed in MCF-7 parental breast cancer cells as before (14-16). […] MCF-7 cells were incubated with 2 nM [^3H]estradiol-17β and antiestrogens (all at 10 μM concentration; numbers Si to S15), with ICI 182,780 (ICI; fulvestrant) used as a control (n=3). Compounds S1-S14 are test compounds different from the exemplified compounds described herein.
# [2] = tested on: Tamoxifen-resistant human MCF-7 breast cancer cells; assay: Endocrine-resistant breast cancer cell proliferation in vitro; assay type: cell-based; details: 72 hrs; 50 nM Palbociclib, 10 nM S128, or both; P<0.001 vs control and 100 nM tamoxifen; FIG. 10
# Description: Tamoxifen-resistant human MCF-7 breast cancer cells were treated in vitro with control vehicle (CON), 100 nM tamoxifen (TAM), 50 nM Palbociclib (Pb) or 10 nM S128 or with Palbociclib in combination with S128 (S128+Pb) over 72 hrs. […] (FIG. 10)
SMILES,specific binding of [3H]estradiol-17β [1],specific binding of [3H]estradiol-17β ([1]; listed as S15),endocrine-resistant breast cancer cell proliferation [2]
"C[C@]12C[C@H](Oc3ccc(N)cc3)[C@@H]3c4ccc(O)cc4CC[C@H]3[C@@H]1CC[C@@H]2O [JD105, (8S,9S,11S,13S,14S,17S)-11-(4-aminophenoxy)-13-methyl-7,8,9,11,12,13,14,15,16,17-decahydro-6H-cyclopenta[a]phenanthrene-3,17-diol]",suppressed,suppressed effectively,–
"C[C@]12C[C@H](Oc3ccc(N)c(C(F)(F)F)c3)[C@@H]3c4ccc(O)cc4CC[C@H]3[C@@H]1CC[C@@H]2O [JD128, (8S,9S,11S,13S,14S,17S)-11-(4-Amino-3-(trifluoromethyl)phenoxy)-13-methyl-7,8,9,11,12,13,14,15,16,17-decahydro-6H-cyclopenta[a]phenanthrene-3,17-diol]",–,–,significantly different from control

# — patent US10918648B2, “Estrogen receptor modulator combinations” (The Regents of the University of California, priority 2016, dated 2021)
